Where two headings read alike, the source gives them in different places.
Columns and labels:
Assay type in all cases: biochemical
NRAS WT = NRAS WT (Homo sapiens (Human), UniProt P01111+P62937); assay: Ras-Raf (BRAF RBD) disruption / FRET / MOA assay, NRAS WT; conditions: read-out: IC50* NRAS WT FRET data
In short: (§1)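 Compounds were tested as a 10-point 3-fold dilution series from 30 μM final for their ability to drive ternary complex formation between nucleotide-loaded Ras and cyclophilin A, displacing the BRAF RBD. After 3 h at 25° C., anti-His Eu-W1024 (10 nM) and anti-GST allophycocyanin (50 nM) were added for 1.5 h. A TR-FRET ratio decrease versus DMSO gave IC50.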

K-Ras G13C = K-Ras G13C (Homo sapiens (Human), UniProt P01116+P62937, G13C); assay: Ras-Raf (BRAF RBD) disruption / FRET / MOA assay, KRAS G13C; conditions: KRAS G13C; Ras-Raf disruption/FRET/MOA assay; read-out: IC50* KRAS G13C FRET data
In short: (§2)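 TR-FRET read-out: a drop in ratio relative to DMSO wells marks disruption of the Ras:RAF complex, reported as IC50. Compounds (3-fold series, 10 points, top 30 μM final) incubated 3 h at 25° C before Eu-anti-His 10 nM and APC-anti-GST 50 nM, 1.5 h more.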

NRAS G12C = NRAS G12C (Homo sapiens (Human), UniProt P01111+P62937, G12C); assay: Ras-Raf (BRAF RBD) disruption / FRET / MOA assay, NRAS G12C
In short: as §2

NRAS Q61R = NRAS Q61R (Homo sapiens (Human), UniProt P01111+P62937, Q61R); assay: Ras-Raf (BRAF RBD) disruption / FRET / MOA assay, NRAS Q61R; conditions: NRAS Q61R; Ras-Raf disruption/FRET/MOA assay; read-out: IC50* NRAS Q61R FRET data
In short: as §1

KRAS G13D = KRAS G13D (Homo sapiens (Human), UniProt P01116+P62937, G13D); assay: Ras-Raf (BRAF RBD) disruption / FRET / MOA assay, KRAS G13D
In short: as §2

KRAS G12V = KRAS G12V (Homo sapiens (Human), UniProt P01116+P62937, G12V); assay: Ras-Raf (BRAF RBD) disruption / FRET / MOA assay, KRAS G12V; conditions: read-out: IC50* KRAS G12V FRET data
In short: as §2

NRAS Q61K = NRAS Q61K (Homo sapiens (Human), UniProt P01111+P62937, Q61K); assay: Ras-Raf (BRAF RBD) disruption / FRET / MOA assay, NRAS Q61K; conditions: NRAS Q61K; Ras-Raf disruption/FRET/MOA assay; read-out: IC50* NRAS Q61K FRET data
In short: as §1

K-Ras G12C = K-Ras G12C (Homo sapiens (Human), UniProt P01116+P62937, G12C); assay: Ras-Raf (BRAF RBD) disruption / FRET / MOA assay, KRAS G12C; conditions: KRAS G12C; Ras-Raf disruption/FRET/MOA assay; read-out: IC50* KRAS G12C FRET data
In short: as §2

KRAS Q61H = KRAS Q61H (Homo sapiens (Human), UniProt P01116+P62937, Q61H); assay: Ras-Raf (BRAF RBD) disruption / FRET / MOA assay, KRAS Q61H; conditions: Ras-Raf disruption/FRET/MOA assay; class symbols; read-out: KRAS Q61H FRET data IC50
In short: as §1

[1] = read-out: IC50* NRAS G12C FRET data
[2] = read-out: IC50* KRAS G13D FRET data

NRAS Q61R, sequence (P01111 whole entry Q61R): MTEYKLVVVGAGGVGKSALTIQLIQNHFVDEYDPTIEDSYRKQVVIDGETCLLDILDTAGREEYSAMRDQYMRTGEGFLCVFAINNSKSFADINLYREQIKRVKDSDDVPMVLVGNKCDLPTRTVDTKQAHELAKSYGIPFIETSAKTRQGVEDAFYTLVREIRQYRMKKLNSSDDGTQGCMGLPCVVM
NRAS Q61R, sequence (P62937 whole entry): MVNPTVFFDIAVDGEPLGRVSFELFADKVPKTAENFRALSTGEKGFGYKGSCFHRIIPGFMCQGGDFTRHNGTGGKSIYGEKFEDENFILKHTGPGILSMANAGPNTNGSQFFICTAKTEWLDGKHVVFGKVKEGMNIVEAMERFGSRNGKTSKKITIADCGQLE
K-Ras G12C, sequence (P01116-2 other isoform, or with tags, fused parts or gaps G12C): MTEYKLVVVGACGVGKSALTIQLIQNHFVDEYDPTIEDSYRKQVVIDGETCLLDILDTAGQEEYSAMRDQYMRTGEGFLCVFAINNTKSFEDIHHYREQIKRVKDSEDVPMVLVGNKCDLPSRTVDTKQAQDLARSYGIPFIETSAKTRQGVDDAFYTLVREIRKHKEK
K-Ras G12C, sequence (P62937 whole entry): as the sequence (P62937 whole entry) above
KRAS Q61H, sequence (P01116-2 other isoform, or with tags, fused parts or gaps Q61H): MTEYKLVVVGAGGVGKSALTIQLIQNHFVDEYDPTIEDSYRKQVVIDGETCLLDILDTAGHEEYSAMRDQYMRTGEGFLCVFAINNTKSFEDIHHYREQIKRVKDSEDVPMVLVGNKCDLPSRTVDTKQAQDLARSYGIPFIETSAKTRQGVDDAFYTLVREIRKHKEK
KRAS Q61H, sequence (P62937 whole entry): as the sequence (P62937 whole entry) above
K-Ras G13C, sequence (P01116-2 other isoform, or with tags, fused parts or gaps G13C): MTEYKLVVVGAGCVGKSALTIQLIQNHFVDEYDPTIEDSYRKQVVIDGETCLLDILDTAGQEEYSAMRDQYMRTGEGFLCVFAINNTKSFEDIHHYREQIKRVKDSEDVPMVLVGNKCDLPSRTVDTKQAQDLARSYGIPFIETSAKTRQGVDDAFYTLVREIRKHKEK
K-Ras G13C, sequence (P62937 whole entry): as the sequence (P62937 whole entry) above
NRAS G12C, sequence (P01111 whole entry G12C): as the sequence (P01111 whole entry Q61R) above, with G12C, R61Q counted along it
NRAS G12C, sequence (P62937 whole entry): as the sequence (P62937 whole entry) above
NRAS WT, sequence (P01111 whole entry): as the sequence (P01111 whole entry Q61R) above, with R61Q counted along it
NRAS WT, sequence (P62937 whole entry): as the sequence (P62937 whole entry) above
KRAS G12V, sequence (P01116-2 other isoform, or with tags, fused parts or gaps G12V): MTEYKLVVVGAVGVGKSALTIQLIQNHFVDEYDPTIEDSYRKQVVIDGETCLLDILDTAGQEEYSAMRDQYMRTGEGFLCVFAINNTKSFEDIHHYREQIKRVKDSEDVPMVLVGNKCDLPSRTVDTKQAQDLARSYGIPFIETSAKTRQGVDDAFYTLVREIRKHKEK
KRAS G12V, sequence (P62937 whole entry): as the sequence (P62937 whole entry) above
NRAS Q61K, sequence (P01111 whole entry Q61K): as the sequence (P01111 whole entry Q61R) above, with R61K counted along it
NRAS Q61K, sequence (P62937 whole entry): as the sequence (P62937 whole entry) above
KRAS G13D, sequence (P01116-2 other isoform, or with tags, fused parts or gaps G13D): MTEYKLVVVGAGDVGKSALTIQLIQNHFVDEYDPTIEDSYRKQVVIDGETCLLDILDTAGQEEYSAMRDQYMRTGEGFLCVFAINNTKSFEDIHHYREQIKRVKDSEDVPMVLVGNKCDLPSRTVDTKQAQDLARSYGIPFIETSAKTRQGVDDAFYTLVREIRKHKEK
KRAS G13D, sequence (P62937 whole entry): as the sequence (P62937 whole entry) above

CO[C@@H](C)c1ncccc1-c1c2c3cc(ccc3n1CC(F)(F)F)-c1nc(ns1)C[C@H](NC(=O)[C@@H](COC1CN(C(=O)C#CC(C)(C)N(C)C)C1)C(C)C)C(=O)N1CCC[C@H](N1)C(=O)OCC(C)(C)C2 (atropisomer, axis not shown) [Example A590, (2R)-2-(((1-(4-(dimethylamino)-4-methylpent-2-ynoyl)azetidin-3-yl)oxy)methyl)-N-((6^3S,4S,Z)-1^2-(2-((S)-1-methoxyethyl)pyridin-3-yl)-10,10-dimethyl-5,7-dioxo-1^1-(2,2,2-trifluoroethyl)-6^1,6^2,6^3,6^4,6^5,6^6-hexahydro-1^1H-8-oxa-2(5,3)-thiadiazola-1(5,3)-indola-6(1,3)-pyridazinacycloundecaphane-4-yl)-3-methylbutanamide]
IC50 (NRAS WT): 1000 to 10000 nM
IC50 (K-Ras G13C): 1000 to 10000 nM
IC50 (NRAS G12C; [1]): 10 to 100 nM
IC50 (NRAS Q61R): > 10000 nM
IC50 (KRAS G13D; [2]): > 10000 nM
IC50 (KRAS G12V): 1000 to 10000 nM
IC50 (NRAS Q61K): 1000 to 10000 nM
IC50 (K-Ras G12C): 10 to 100 nM
IC50 (KRAS Q61H): 1000 to 10000 nM

C=CC(=O)N1CCO[C@@]2(CCN(C(=O)N(C)[C@H](C(=O)N[C@H]3Cc4nc(cs4)-c4ccc5c(c4)c(c(-c4cccnc4[C@H](C)OC)n5CC(F)(F)F)CC(C)(C)COC(=O)[C@@H]4CCCN(N4)C3=O)C(C)C)C2)C1 (atropisomer, axis not shown) [Example A594]
IC50 (NRAS WT): 10 to 100 nM
IC50 (K-Ras G13C): 10 to 100 nM
IC50 (NRAS G12C; IC50* NRAS G12C FRET data): 10 to 100 nM
IC50 (NRAS Q61R): 10 to 100 nM
IC50 (KRAS G13D; IC50* KRAS G13D FRET data): 100 to 1000 nM
IC50 (KRAS G12V): 100 to 1000 nM
IC50 (NRAS Q61K): 10 to 100 nM
IC50 (K-Ras G12C): 10 to 100 nM
IC50 (KRAS Q61H): 10 to 100 nM

C=CC(=O)N1CCO[C@H]2CN(C(=O)N(C)[C@H](C(=O)N[C@H]3Cc4cccc(n4)-c4ccc5c(c4)c(c(-c4cccnc4[C@H](C)OC)n5CC(F)(F)F)CC(C)(C)COC(=O)[C@@H]4CCCN(N4)C3=O)C(C)C)C[C@H]21 (atropisomer, axis not shown) [Example A595]
IC50 (NRAS WT): 100 to 1000 nM
IC50 (K-Ras G13C): 10 to 100 nM
IC50 (NRAS G12C; [1]): 10 to 100 nM
IC50 (NRAS Q61R): 100 to 1000 nM
IC50 (KRAS G13D; [2]): 1000 to 10000 nM
IC50 (KRAS G12V): 1000 to 10000 nM
IC50 (NRAS Q61K): 100 to 1000 nM
IC50 (K-Ras G12C): 10 to 100 nM
IC50 (KRAS Q61H): 100 to 1000 nM

C=CC(=O)N1CCO[C@H]2CN(C(=O)N(C)[C@H](C(=O)N[C@H]3Cc4cccc(n4)-c4ccc5c(c4)c(c(-c4cccnc4[C@H](C)OC)n5CC)CC(C)(C)COC(=O)[C@@H]4CCCN(N4)C3=O)C(C)C)C[C@H]21 (atropisomer, axis not shown) [Example A597]
IC50 (NRAS WT): 1000 to 10000 nM
IC50 (K-Ras G13C): 10 to 100 nM
IC50 (NRAS G12C; [1]): 10 to 100 nM
IC50 (NRAS Q61R): 100 to 1000 nM
IC50 (KRAS G13D; [2]): 1000 to 10000 nM
IC50 (KRAS G12V): 1000 to 10000 nM
IC50 (NRAS Q61K): 100 to 1000 nM
IC50 (K-Ras G12C): 10 to 100 nM
IC50 (KRAS Q61H): 100 to 1000 nM

C=CC(=O)N1CCO[C@H]2CN(C(=O)N(C)[C@H](C(=O)N[C@H]3Cc4cccc(c4)-c4ccc5c(c4)c(c(-c4cccnc4[C@H](C)OC)n5CC)CC(C)(C)COC(=O)[C@@H]4CCCN(N4)C3=O)C(C)C)C[C@H]21 (atropisomer, axis not shown) [Example A610]
IC50 (NRAS WT): 100 to 1000 nM
IC50 (K-Ras G13C): 10 to 100 nM
IC50 (NRAS G12C; [1]): 10 to 100 nM
IC50 (NRAS Q61R): 100 to 1000 nM
IC50 (KRAS G13D; [2]): 1000 to 10000 nM
IC50 (KRAS G12V): 1000 to 10000 nM
IC50 (NRAS Q61K): 100 to 1000 nM
IC50 (K-Ras G12C): 10 to 100 nM
IC50 (KRAS Q61H): 100 to 1000 nM

C=CC(=O)N1CC2(CCN2C(=O)N(C)[C@H](C(=O)N[C@H]2Cc3nc(n(C)n3)-c3ccc4c(c3)c(c(-c3cccnc3[C@H](C)OC)n4CC)CC(C)(C)COC(=O)[C@@H]3CCCN(N3)C2=O)C(C)C)C1 (atropisomer, axis not shown) [Example A612]
IC50 (NRAS WT): 10 to 100 nM
IC50 (K-Ras G13C): 100 to 1000 nM
IC50 (NRAS G12C; [1]): < 10 nM
IC50 (NRAS Q61R): 10 to 100 nM
IC50 (KRAS G13D; [2]): 100 to 1000 nM
IC50 (KRAS G12V): 100 to 1000 nM
IC50 (NRAS Q61K): 10 to 100 nM
IC50 (K-Ras G12C): 10 to 100 nM
IC50 (KRAS Q61H): 10 to 100 nM

CCn1c(-c2cccnc2[C@H](C)OC)c2c3cc(ccc31)N1CCC[C@@H](C[C@H](NC(=O)[C@H](C(C)C)N(C)C(=O)C3(F)CCN(C(=O)C#CC(C)(C)N(C)C)CC3)C(=O)N3CCC[C@H](N3)C(=O)OCC(C)(C)C2)C1 (atropisomer, axis not shown) [Example A615]
IC50 (NRAS WT): > 10000 nM
IC50 (K-Ras G13C): > 10000 nM
IC50 (NRAS G12C; [1]): 10 to 100 nM
IC50 (NRAS Q61R): > 10000 nM
IC50 (KRAS G13D; [2]): > 10000 nM
IC50 (KRAS G12V): > 10000 nM
IC50 (NRAS Q61K): > 10000 nM
IC50 (K-Ras G12C): 10 to 100 nM
IC50 (KRAS Q61H): > 10000 nM

C=CC(=O)N(C)CCC1CCN(C(=O)N(C)[C@H](C(=O)N[C@H]2Cc3nc(cs3)-c3ccc4c(c3)c(c(-c3cccnc3[C@H](C)OC)n4CC)CC(C)(C)COC(=O)[C@@H]3CCCN(N3)C2=O)C(C)C)CC1 (atropisomer, axis not shown) [Example A621]
IC50 (NRAS WT): 10 to 100 nM
IC50 (K-Ras G13C): 10 to 100 nM
IC50 (NRAS G12C; [1]): 10 to 100 nM
IC50 (NRAS Q61R): 10 to 100 nM
IC50 (KRAS G13D; [2]): 100 to 1000 nM
IC50 (KRAS G12V): 10 to 100 nM
IC50 (NRAS Q61K): 10 to 100 nM
IC50 (K-Ras G12C): 10 to 100 nM
IC50 (KRAS Q61H): < 10 nM

Source: US11566007B2, “Ras inhibitors” (Revolution Medicines, Inc., priority 2019, dated 2023)
